System: conscious male spontaneously hypertensive rats (SHR)
Assay: anti-hypertensive response: area under the control group blood pressure curve (mean arterial blood pressure, indwelling catheter) in conscious male spontaneously hypertensive rats
Format: in vivo
Settings: cromakalim 0.075 mg/kg po, n=10
Method: Mean arterial blood pressures were measured from an indwelling catheter as described by Buckingham 1976 J. Pharm. Pharmac Vol. 28, pp 459-461. 1. Calculation of area under the control group blood pressure curve (AUC). Group mean arterial blood pressure values were calculated as % change from the pretreatment baseline. For each drug treatment group the area under the control group blood pressure curve was calculated using a trapezoidal method. […] Predicted AUC values were arrived at by combining values for each treatment given alone.

## CC1(C)Oc2ccc(C#N)cc2[C@@H](N2CCCC2=O)[C@@H]1O (racemic) [Cromakalim, (±)-6-cyano-3,4-dihydro-2,2-dimethyl-trans-4-(2-oxo-1-pyrrolidinyl)-2H-benzo[b]pyran-3-ol]
0-2 h
  AUC (0-2 h): 1941
0-4 h
  AUC (0-4 h): 2981
